Consider 5 molecules from PMC7948455, “Novel drug discovery platform for spinocerebellar ataxia, using fluorescence technology targeting β-III-spectrin” (The Journal of Biological Chemistry, 2020).

Assay [1] deals with T1, ABD L253P (Homo sapiens, UniProt O15020, L253P).
T1 construct: the β-III-spectrin (human) ABD residues 1 to 284; His-SUMO (cleaved yes); made in house; host or cells: E. coli BL21(DE3), vector pE-SUMOpro
The assay can be described thus: Sedimentation of ABD L253P without actin (aggregation). The settings on record: for Effect on ABD pelleting without actin (aggregation): 10 μM Hit compound, n = 4. As for the experimental part: In addition to a reduction in cell viability, the primary and counter screen may be sensitive to compounds that promote ABD-L253P protein aggregation. […] Our assay measuring ABD-L253P cosedimentation with actin is not sensitive to ABD aggregation, as it is designed to work under conditions where ∼90% ABD-L253P cosediments with actin. Nevertheless, we repeated these measurements in the absence of actin.
F-actin and ABD binding assays were performed as previously described ([10]). In brief, binding assays used 1 μM ABD protein, 1 μM F-actin, and 1 to 50 μM compound (as indicated) or DMSO control for a total reaction volume of 60 μl in F-buffer containing 10 mM Tris, pH 7.5, 150 mM NaCl, 0.5 mM ATP, 2 mM MgCl2, and 1 mM DTT. Following 30 min incubation at room temperature (21 °C). F-actin was pelleted using centrifugation at 100,000g at 25 °C for 30 min. Unbound ABD in the supernatant was measured following SDS-PAGE and Coomassie blue staining in accord ([10]). In addition, control cosedimentations assays that lacked actin were performed to test if compounds cause ABD aggregation. F-actin and Lifeact-mCherry binding assays were undertaken with 2 μM Lifeact-mCherry, 30 μM F-actin, and 1 to 50 μM compound (as indicated) or DMSO control for a total reaction volume of 80 μl in F-buffer. For a no-actin binding control, an assay sample with no F-actin was also set up. Binding reactions were allowed to reach equilibrium at room temperature (21 °C) for 30 min, and then F-actin was pelleted by centrifugation at 100,000g at 25 °C for 30 min. The amount of unbound Lifeact-mCherry was sampled by loading 7 μl of spin supernatant on a low-volume black bottom 384-well plate (Greiner). Amount of mCherry was determined by acquiring fluorescence spectrum peak intensity at ∼600 nm using a spectral unmixing plate reader (Fluorescence Innovations, Inc) equipped with a 532 nm laser (Laserglow Technologies, Ontario, Canada) for excitation, 532 nm long-pass filter for emission, and PMT for emission detection. The fraction of Lifeact-mCherry bound to F-actin was determined by subtracting from one the fraction of supernatant fluorescence intensity relative to the no-actin control sample:(3) Lifeactboundfraction=1−Fcompound/DMSO/FNo−actin where Fcontrol/DMSO is the peak mCherry fluorescence of assay samples containing compound or DMSO control, and Fno-actin is the peak mCherry fluorescence of assay samples that contained no F-actin.

Assay [2] addresses T2, binding of the mutant β-III-spectrin L253P ABD to F-actin (Homo sapiens, UniProt O15020, L253P).
T2 construct: the β-III-spectrin (human) ABD residues 1 to 284; expressed in transfected cells; host or cells: HEK293-6E (pTT5 vector, transient transfection)
Briefly: Primary live-cell FRET assay (GFP-ABD-L253P + Lifeact-mCherry) in HEK293-6E cells. Format: cell-based. The settings on record: for Shift of FRET: 10 μM; for Effect of Hit compound on primary FRET: LOPAC Hits (10 μM screen, 4SD threshold, 120 min) and dose response. The method, then:
To develop a biosensor that monitors the binding of mutant L253P β-III-spectrin to actin filaments in live cells, a FRET approach was tested. A FRET donor construct consisting of green fluorescent protein fused to the N terminus of the mutant ABD (GFP-ABD-L253P) was coexpressed in HEK293-EBNA1-6E (HEK293-6E) cells with a FRET acceptor construct consisting of the actin-binding peptide, Lifeact, fused to the N terminus of red fluorescent protein, mCherry (Lifeact-mCherry). Lifeact is a 17 amino acid peptide derived from the yeast actin-binding protein, ABP140 ([15]). […] The cryo-EM structures of ABD L253P and Lifeact on actin indicate that the binding sites overlap on actin units. With ABD L253P and Lifeact bound on neighboring actin units, we predicted an average distance of ∼80 Å between GFP and mCherry (Fig. 1). With a known Förster distance R0 of 52.4 Å ([17]), this corresponds to FRET value of 0.07, a sufficient signal for a biosensor platform. To design a system most compatible for large production and eventual screening of 50,000+ compound libraries, we used HEK293-6E cells, a suspension cell line that yields greater levels (>threefold) of recombinant protein expression ([18], [19]).
With a constant amount of GFP-ABD-L253P expressed, increased Lifeact-mCherry expression increases FRET with an exponential plateau to 0.12 (Fig. 2A). To measure the nonspecific component of our FRET readout, we concurrently tested expression of mCherry in place of Lifeact-mCherry. For comparison, the Lifeact-mCherry and mCherry fluorescence intensity values (normalized to 1:1 GFP-ABD:Lifeact-mCherry sample) are plotted on the X-axis for samples transfected with different donor-to-acceptor DNA ratios. […] With the trade-off between high FRET and minimal nonspecific FRET, the donor:acceptor ratio 1:2 was chosen for the experiments that followed (Fig. 2A). […] Of note, we also tested the biosensor using WT-ABD, which yielded substantially lower FRET (Fig. S1), consistent with the 1000-fold decrease in affinity of WT-ABD for actin ([10]). We proceeded to test the compatibility of the GFP-ABD-L253P and Lifeact-mCherry assay for primary compound screening and the GFP-ABD-L253P and mCherry assay as a potential high-throughput counter screen.
To test the performance of the assay in HTS, the 1280 LOPAC compounds, together with 256 DMSO controls, were dispensed in 5 nl volumes into individual wells of 1536-well microplates and stored at −20 °C until use. To test the reproducibility of replicate screens on the same day, a single batch of HEK293 cells was transfected with GFP-ABD-L253P and Lifeact-mCherry. In addition, control cells were transfected with only GFP-ABD-L253P, to determine compound effect on donor-only lifetime (τD). To test reproducibility of the screens across different days, identical transfections were performed on another batch of HEK293-6E cells on a second day. Following plate thaw, 5 μl of assay cells were loaded in each well via a multidrop liquid dispenser, and a time course of compound effects (at 20, 120, and 180 min post load) on fluorescence lifetime was acquired using a fluorescence lifetime plate reader (FLT-PR). This technology has been advanced to high-density 1536-well plates in recent years for successful HTS using a range of protein biosensors including sarcoplasmic reticulum Ca-ATPase ([24], [25], [26], [27]), ryanodine receptor ([23], [28]), actin ([20]), tumor necrosis factor receptor 1 ([29], [30]), and tau ([31]).
At 2 × 10^6 cells/ml, HEK293-6E cells were transfected with GFP-ABD-L253P or GFP-ABD-WT (2.4 μg), Lifeact-mCherry (2.4–16.8 μg), mCherry (1.2–16.8 μg), and/or pTT5 (0.8–17.6 μg), as indicated, using the 293fectin protocol (Thermo Fisher Scientific) with 20 μg total DNA. Cells were transfected with either GFP-ABD-L253P or –WT, but coexpression of the WT and mutant isoform was not explored in this study. The cells were harvested 24 h later by centrifugation at 100g for 5 min and then washed twice with PBS. […]

pEC50: −log10 of the molar value. Entries after “also recorded” stand apart in the source; their conditions may differ. Where two headings read alike, the source gives them in different places.

By pEC50 is commonly meant the negative decadic logarithm of the EC50, by convention in mol/L.

T1 sequence (O15020 1-284 L253P): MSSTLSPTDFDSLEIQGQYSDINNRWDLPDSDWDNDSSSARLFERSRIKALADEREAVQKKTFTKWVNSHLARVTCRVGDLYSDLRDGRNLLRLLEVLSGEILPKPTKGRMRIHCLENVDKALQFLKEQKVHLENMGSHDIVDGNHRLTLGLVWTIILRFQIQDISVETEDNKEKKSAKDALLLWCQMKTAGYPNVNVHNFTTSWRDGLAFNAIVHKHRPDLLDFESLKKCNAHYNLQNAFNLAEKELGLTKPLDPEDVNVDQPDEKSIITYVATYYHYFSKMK
T2 sequence (O15020 1-284 L253P): as above

Turning to `CC(C)(C)c1ccc(/C=C/C(=O)Nc2ccc3c(c2)OCCO3)cc1` [AMG 9810], the “Effect on ABD pelleting without actin (aggregation)” value in assay [1] is on record as “do not significantly alter”. For the same molecule, in assay [2], the “Shift of FRET” value is 2 to 14% and the “Effect of Hit compound on primary FRET” value is “decrease FRET”.
Consider `O=C(O)c1cc([N+](=O)[O-])ccc1NCCCc1ccccc1` [NPPB], for which the “Effect on ABD pelleting without actin (aggregation)” value in assay [1] is listed as “do not significantly alter”. In addition, the “Effect of Hit compound on primary FRET” value in assay [2] is on record as “decrease FRET”.
For the molecule `CCOc1nc2cccc(C(=O)O)c2n1Cc1ccc(-c2ccccc2-c2nnn[nH]2)cc1` [candesartan], the “Effect on ABD pelleting without actin (aggregation)” value in assay [1] was “trend toward increasing; also recorded: do not significantly alter”. Further, in assay [2], the “Shift of FRET” value lay within 2 to 14% and the “Effect of Hit compound on primary FRET” value was “decrease FRET”.
Consider `CCCCCCCC/C=C\CCCCCCCC(=O)NCc1ccc(O)c(OC)c1` [olvanil], for which the “Effect on ABD pelleting without actin (aggregation)” value in assay [1] is reported as “do not significantly alter”. In assay [2], the “Shift of FRET” value was 2 to 14% and the “Effect of Hit compound on primary FRET” value is listed as “decrease FRET; also recorded: subtly reduced”.
Take `CO[C@H]1C[C@H](CC[C@H](C)[C@H](O)[C@H](C)[C@H]2OC(=O)/C=C/C(C)=C/C[C@H](O)C[C@@H]3C=CC[C@@H](C[C@H](OC)[C@@H](C)[C@@H](O)C[C@@H](O)[C@H](C)[C@@H]([C@@H](C)[C@@H](O)[C@@H](C)CC[C@H]4C[C@H](OC)C[C@H](C)O4)OC(=O)/C=C/C(C)=C/C[C@H](O)C[C@@H]4C=CC[C@@H](C[C@H](OC)[C@@H](C)[C@@H](O)C[C@@H](O)[C@@H]2C)O4)O3)O[C@@H](C)C1` [swinholide A]: the “Effect on ABD sedimentation without actin” value in assay [1] (1.6 μM swinholide A) was “did not induce”. In addition, the “Reduction of Total FRET in primary FRET assay” value in assay [2] (1 μM swinholide A, relative to DMSO) is > 50%. Also, the pEC50 was 6.62 in assay [2] (Plate A, 1536-well, read-out: EC50 of specific FRET dose response); 6.55 in assay [2] (Plate B, 1536-well, read-out: EC50 of specific FRET dose response); 6.57 in assay [2] (Plate C, 1536-well, read-out: EC50 of specific FRET dose response); 6.58 in assay [2] (triplicate 12-point concentration response, 1536-well plates, read-out: EC50 of FRET reduction, average). Besides, the “Reduction in FRET (Fig. 2B)” value in assay [2] (swinholide A (3 μM in Fig. 2B legend), relative to DMSO, n = 3) worked out at 56 ± 7%.
